In publication PMC11944513, “Investigation on Human Carbonic Anhydrase IX and XII Inhibitory Activity and A549 Antiproliferative Activity of a New Class of Coumarinamides” (Pharmaceuticals, 2025):

Legend:
h-CA IX = h-CA IX (Homo sapiens, UniProt Q16790); experiment: stopped-flow CO2 hydrase assay, h-CA IX
h-CA I = h-CA I (Homo sapiens, UniProt P00915); experiment: stopped-flow CO2 hydrase assay, h-CA I
h-CA XII = h-CA XII (Homo sapiens, UniProt O43570); experiment: stopped-flow CO2 hydrase assay, h-CA XII
Chain of h-CA XII (O43570 25-354): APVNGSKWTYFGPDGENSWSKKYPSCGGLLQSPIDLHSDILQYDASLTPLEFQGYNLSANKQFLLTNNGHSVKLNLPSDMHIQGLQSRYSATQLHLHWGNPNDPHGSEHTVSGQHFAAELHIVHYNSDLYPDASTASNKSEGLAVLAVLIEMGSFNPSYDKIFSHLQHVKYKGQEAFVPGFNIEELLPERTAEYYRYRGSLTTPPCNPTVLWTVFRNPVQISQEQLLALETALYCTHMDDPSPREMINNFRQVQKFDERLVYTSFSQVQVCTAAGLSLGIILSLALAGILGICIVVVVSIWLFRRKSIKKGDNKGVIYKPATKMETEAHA

h-CA II = h-CA II (Homo sapiens, UniProt P00918); experiment: stopped-flow CO2 hydrase assay, h-CA II

Chain of h-CA I (P00915 whole entry): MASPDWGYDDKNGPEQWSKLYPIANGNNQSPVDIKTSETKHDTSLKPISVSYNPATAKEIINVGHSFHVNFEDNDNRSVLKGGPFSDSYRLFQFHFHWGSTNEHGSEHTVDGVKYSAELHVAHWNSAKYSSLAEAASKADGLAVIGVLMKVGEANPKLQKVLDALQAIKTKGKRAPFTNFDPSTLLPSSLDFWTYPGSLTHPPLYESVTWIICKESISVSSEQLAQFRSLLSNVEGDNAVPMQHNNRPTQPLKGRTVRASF

Compound | Ki (h-CA IX) | Ki (h-CA I) | Ki (h-CA XII) | Ki (h-CA II)
O=C(c1cc2ccc(O)cc2oc1=O)N1CCN(Cc2ccccc2)CC1 [Compound 31, 3-(4-Benzylpiperazine-1-Carbonyl)-7-Hydroxy-2H-Chromen-2-One] | 84.1 µM | > 100 µM | 59.5 µM | > 100 µM
O=C(NCCc1ccc(F)cc1)c1cc2ccc(O)cc2oc1=O [Compound 28, N-(4-Fluorophenethyl)-7-Hydroxy-2-Oxo-2H-Chromene-3-Carboxamide] | 80.4 µM | > 100 µM | 66.9 µM | > 100 µM
O=C(NCc1ccc(Cl)cc1)c1cc2ccc(O)cc2oc1=O [Compound 21, N-(4-Chlorobenzyl)-7-Hydroxy-2-Oxo-2H-Chromene-3-Carboxamide] | 80.7 µM | > 100 µM | 39.7 µM | > 100 µM
O=C(NCc1ccc(C(F)(F)F)cc1)c1cc2ccc(O)cc2oc1=O [Compound 17, 7-Hydroxy-2-Oxo-N-(4-(Trifluoromethyl)benzyl)-2H-Chromene-3-Carboxamide] | 83.7 µM | > 100 µM | 54.1 µM | > 100 µM
Cc1ccc(N2CCN(C(=O)c3cc4ccc(O)cc4oc3=O)CC2)cc1 [Compound 34, 7-Hydroxy-3-(4-(p-tolyl)piperazine-1-Carbonyl)-2H-Chromen-2-One] | 83.2 µM | > 100 µM | 56 µM | > 100 µM
Cc1cccc(N2CCN(C(=O)c3cc4ccc(O)cc4oc3=O)CC2)c1 [Compound 33, 7-Hydroxy-3-(4-(m-tolyl)piperazine-1-Carbonyl)-2H-Chromen-2-One] | 89.3 µM | > 100 µM | 40.5 µM | > 100 µM
COc1ccc(CCNC(=O)c2cc3ccc(O)cc3oc2=O)cc1OC [Compound 27, N-(3,4-Dimethoxyphenethyl)-7-Hydroxy-2-Oxo-2H-Chromene-3-Carboxamide] | 84.7 µM | > 100 µM | 50.8 µM | > 100 µM
O=C(NCc1c(Cl)cccc1Cl)c1cc2ccc(O)cc2oc1=O [Compound 24, N-(2,6-Dichlorobenzyl)-7-Hydroxy-2-Oxo-2H-Chromene-3-Carboxamide] | 85.6 µM | > 100 µM | 75.1 µM | > 100 µM
COc1ccc(CCNC(=O)c2cc3ccc(O)cc3oc2=O)cc1 [Compound 26, 7-Hydroxy-N-(4-Methoxyphenethyl)-2-Oxo-2H-Chromene-3-Carboxamide] | 80.8 µM | > 100 µM | 57.7 µM | > 100 µM
Cc1cccc(N2CCN(C(=O)c3cc4ccc(O)cc4oc3=O)CC2)c1C [Compound 35, 3-(4-(2,3-Dimethylphenyl)piperazine-1-Carbonyl)-7-Hydroxy-2H-Chromen-2-One] | 82.2 µM | > 100 µM | 41.4 µM | > 100 µM
O=C(NCc1ccc(F)cc1)c1cc2ccc(O)cc2oc1=O [Compound 13, N-(4-Fluorobenzyl)-7-Hydroxy-2-Oxo-2H-Chromene-3-Carboxamide] | 86.9 µM | > 100 µM | 70.5 µM | > 100 µM

Second part, the compound after the results:

Ki (h-CA IX) | Ki (h-CA I) | Ki (h-CA XII) | Ki (h-CA II) | Compound
78.1 µM | > 100 µM | 69.7 µM | > 100 µM | Cc1ccc(N2CCN(C(=O)c3cc4ccc(O)cc4oc3=O)CC2)c(C)c1 [Compound 36, 3-(4-(2,4-Dimethylphenyl)piperazine-1-Carbonyl)-7-Hydroxy-2H-Chromen-2-One]
75.7 µM | > 100 µM | 49.8 µM | > 100 µM | O=C(NCc1ccc([N+](=O)[O-])cc1)c1cc2ccc(O)cc2oc1=O [Compound 11, 7-Hydroxy-N-(4-Nitrobenzyl)-2-Oxo-2H-Chromene-3-Carboxamide]
68.1 µM | > 100 µM | 46.8 µM | > 100 µM | Cc1cc(C)cc(N2CCN(C(=O)c3cc4ccc(O)cc4oc3=O)CC2)c1 [Compound 39, 3-(4-(3,5-Dimethylphenyl)piperazine-1-Carbonyl)-7-Hydroxy-2H-Chromen-2-One]
60.7 µM | > 100 µM | 26.1 µM | > 100 µM | O=C(NCc1ccc(Br)cc1)c1cc2ccc(O)cc2oc1=O [Compound 18, N-(4-Bromobenzyl)-7-Hydroxy-2-Oxo-2H-Chromene-3-Carboxamide]
73.2 µM | > 100 µM | 57.6 µM | > 100 µM | O=C(NCc1cccc(F)c1)c1cc2ccc(O)cc2oc1=O [Compound 14, N-(3-Fluorobenzyl)-7-Hydroxy-2-Oxo-2H-Chromene-3-Carboxamide]
25.4 µM | > 100 µM | 47.5 µM | > 100 µM | O=C(c1cc2ccc(O)cc2oc1=O)N1CCN(c2cccc([N+](=O)[O-])c2)CC1 [Compound 41, 7-Hydroxy-3-(4-(3-Nitrophenyl)piperazine-1-Carbonyl)-2H-Chromen-2-One]
64.7 µM | > 100 µM | 55.2 µM | > 100 µM | O=C(NCc1cccc([N+](=O)[O-])c1)c1cc2ccc(O)cc2oc1=O [Compound 12, 7-Hydroxy-N-(3-Nitrobenzyl)-2-Oxo-2H-Chromene-3-Carboxamide]
63.1 µM | > 100 µM | 73.1 µM | > 100 µM | COc1cccc(CNC(=O)c2cc3ccc(O)cc3oc2=O)c1 [Compound 10, 7-Hydroxy-N-(3-Methoxybenzyl)-2-Oxo-2H-Chromene-3-Carboxamide]
33.9 µM | > 100 µM | 42.6 µM | > 100 µM | O=C(NCc1cccc(Cl)c1)c1cc2ccc(O)cc2oc1=O [Compound 20, N-(3-Chlorobenzyl)-7-Hydroxy-2-Oxo-2H-Chromene-3-Carboxamide]
77.4 µM | > 100 µM | 70.2 µM | > 100 µM | COc1ccccc1CNC(=O)c1cc2ccc(O)cc2oc1=O [Compound 8, 7-Hydroxy-N-(2-Methoxybenzyl)-2-Oxo-2H-Chromene-3-Carboxamide]
40.4 µM | > 100 µM | 79.9 µM | > 100 µM | COc1cccc(N2CCN(C(=O)c3cc4ccc(O)cc4oc3=O)CC2)c1 [Compound 43, 7-Hydroxy-3-(4-(3-Methoxyphenyl)piperazine-1-Carbonyl)-2H-Chromen-2-One]
30.1 µM | > 100 µM | 62.8 µM | > 100 µM | O=C(c1cc2ccc(O)cc2oc1=O)N1CCN(c2ccc([N+](=O)[O-])cc2)CC1 [Compound 42, 7-Hydroxy-3-(4-(4-Nitrophenyl)piperazine-1-Carbonyl)-2H-Chromen-2-One]
77.1 µM | > 100 µM | 64.4 µM | > 100 µM | O=C(NCc1cccc(C(F)(F)F)c1)c1cc2ccc(O)cc2oc1=O [Compound 16, 7-Hydroxy-2-Oxo-N-(3-(Trifluoromethyl)benzyl)-2H-Chromene-3-Carboxamide]
50 µM | > 100 µM | 31.5 µM | > 100 µM | O=C(NCc1ccccc1C(F)(F)F)c1cc2ccc(O)cc2oc1=O [Compound 15, 7-Hydroxy-2-Oxo-N-(2-(Trifluoromethyl)benzyl)-2H-Chromene-3-Carboxamide]
75.9 µM | > 100 µM | 63.4 µM | > 100 µM | Cc1ccc(C)c(N2CCN(C(=O)c3cc4ccc(O)cc4oc3=O)CC2)c1 [Compound 37, 3-(4-(2,5-Dimethylphenyl)piperazine-1-Carbonyl)-7-Hydroxy-2H-Chromen-2-One]
